Test results as given in patent publication US20250346871A1, “PRENYLTRANSFERASES AND METHODS OF MAKING AND USE THEREOF” (priority 2020, published 2025).

Key:
[1] = system: APT73 (SEQ ID NO: 4) variant APT73.30 (S205R, S223A, K225H, A260G, Y276L, G282R, A283C, S284L; residues 285 onward removed from the C-terminus), SEQ ID NO: 56; assay: Kinetic characterization of purified enzyme with OA and GPP as substrates; format: biochemical; details: APT73.30, purified enzyme
Experimental: (§1) In order to compare the enzyme's activities more accurately, larger cultures of the best hits and controls from the first screen were grown and the enzymes were purified according to the following protocol. Glycerol stocks of each recombinant strain were used to inoculate 2 mL of LB with 50 μg/mL kanamycin. […]. The cultures were grown at 37° C. with 250 rpm shaking until an OD600 of approximately 0.8-1. At this point, the cultures were transferred to a shaker at room temperature for 30 min, after which they were induced with 0.25 mM IPTG. After 16 h at 150 rpm shaking, the cells were pelleted by centrifugation
(§2) Cell pellets were resuspended in 10 mL lysis buffer (B-PER with 5 mM MgCl2, 100 μg/mL lysozyme, and 2 μL/mL DNaseI (TURBO DNase ThermoFisher)). After incubation at room temperature for 10 min, the cell debris were removed by centrifugation at 4750 rpm for 10 min at 4° C. Lysates were loaded in pre-equilibrated cobalt spin columns (ThermoFisher, HisPur Cobalt spin column, 1 mL) and tagged proteins were purified according to manufacturer's protocol. The eluted proteins were exchanged into the final buffer (TrisHCl 25 mM, 5 mM MgCl2, 150 mM NaCl 10% v/v glycerol) using Amicon Ultra 15 centrifugal filters (10 kDa MWCO). Proteins can be stored at −20° C. for at least a week.
(§3) Selected mutants from the previous screenings were cloned in E. coli vectors and were purified as described in Example 3.

[2] = system: APT73 (SEQ ID NO: 4) variant APT73.52 (S205R, S223A, K225H, A260G, Y276E, G282R, A283C, S284L; residues 285 onward removed from the C-terminus), SEQ ID NO: 69; assay: as above; format: biochemical; details: APT73.52, purified enzyme
Experimental: as §1, §2, §3

[3] = system: APT89, aromatic prenyltransferase, wild type, SEQ ID NO: 2 (expressed with His tag: SEQ ID NO: 9, 81); assay: as above; format: biochemical
Experimental: as §1, §2, §3

[4] = system: APT73 (SEQ ID NO: 4) variant APT73.13 (S205R, G282R, A283C, S284L; residues 285 onward removed from the C-terminus), SEQ ID NO: 36; assay: as above; format: biochemical; details: APT73.13, purified enzyme
Experimental: as §1, §2, §3

[5] = system: APT73 (SEQ ID NO: 4) variant APT73.47 (A156I, S205R, S223A, K225H, A260G, Y276L, G282R, A283C, S284L; residues 285 onward removed from the C-terminus), SEQ ID …; assay: as above; format: biochemical; details: APT73.47, purified enzyme
Experimental: as §1, §2, §3

[6] = system: NphB, aromatic prenyltransferase from Streptomyces sp. (strain CL190), wild type, Uniprot ID: Q4R2T2, SEQ ID NO: 20; details: OA and GPP as substrates, from literature (Valliere et al. Nature Commun. 2019, 10, 565); cited from earlier work

| Structure (SMILES) | Kcat (CBGA) [1] [s⁻¹] | Kcat (CBGA) [2] [s⁻¹] | Kcat (CBGA) [3] [s⁻¹] | Kcat (CBGA) [4] [s⁻¹] | Kcat (CBGA) [5] [s⁻¹] | Km [1] [µM] | Km [2] [µM] | Km [3] [µM] | Km [4] [µM] | Km [5] [µM] | Km [6] [µM] |
| --- | --- | --- | --- | --- | --- | --- | --- | --- | --- | --- | --- |
| CCCCCc1cc(O)c(C/C=C(\C)CCC=C(C)C)c(O)c1C(=O)O [CBGA, cannabigerolic acid] | 0.113 | 0.08 | 0.001 | 0.049 | 0.175 |  |  |  |  |  |  |
| CCCCCc1cc(O)cc(O)c1C(=O)O [OA, olivetolic acid] |  |  |  |  |  | 501 ± 88 | 101 ± 14 | 33 ± 4 | 1100 ± 93 | 205 ± 165 | 640 |
